Patent US20260226071A1, “2, 4-DIANILINOPYRIMIDINE-BASED AURORA-A KINASE SELECTIVE DEGRADATION INDUCING COMPOUNDS” (UPPTHERA, INC., priority 2023, published 2026)
pIC50: −log10 of the molar value.

Assays:
[1] = target: T1, Aurora kinase A (AURKA) (Homo sapiens, UniProt O14965); test: Luciferase assay for AURKA in HeLa LgBit (AURKA-HiBit KI) cell line; format: cell-based; conditions: HeLa LgBit (AURKA-HiBit KI) cells, measured after 12 hours
T1 construct: endogenous in cells; host or cells: HeLa LgBit (AURKA-HiBit KI), CRISPR/Cas9 knock-in at the endogenous AURKA locus
T1 sequence (O14965 1-403): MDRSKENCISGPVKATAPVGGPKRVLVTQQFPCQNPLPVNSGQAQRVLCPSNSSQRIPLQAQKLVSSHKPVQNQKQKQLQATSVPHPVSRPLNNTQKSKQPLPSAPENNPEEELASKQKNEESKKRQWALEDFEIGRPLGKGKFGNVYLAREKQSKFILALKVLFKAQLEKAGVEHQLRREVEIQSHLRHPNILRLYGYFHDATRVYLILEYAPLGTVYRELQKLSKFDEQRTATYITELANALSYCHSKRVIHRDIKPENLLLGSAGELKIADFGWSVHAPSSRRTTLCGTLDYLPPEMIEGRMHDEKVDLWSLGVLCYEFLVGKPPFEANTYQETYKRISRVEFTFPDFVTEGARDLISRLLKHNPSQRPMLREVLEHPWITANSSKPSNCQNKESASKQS
Summary of the method: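 HeLa cells stably expressing LgBit, with HiBit knocked in at the C-terminus of endogenous AURKA; 3×10^4 cells seeded, 18 h, then Endurazine substrate 2 h. Compounds tested at 10 nM or 100 nM; luminescence read at 470-480 nm after 12 h as real-time read-out.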

[2] = tested on: NCI-H446 cell line; test: Cell viability assay for NCI-H446 cell line; format: cell-based; conditions: Homo sapiens, NCI-H446, 120 h; H446 cells, 5 days culture, EZ-Cytox; read-out: IC50 value (Level)
Summary of the method: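 H446 cells seeded 24 h before treatment with compound in 3-fold dilutions, 1000 to 0.15 nM, then cultured 5 days at 37 °C, 5% CO2 in RPMI 1640/10% FBS. Viability read with EZ-Cytox (4 h) as absorbance at 450 nm.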

| luminescence value (Level) ([1]; 10 nM compound) | luminescence value (Level) ([1]; 100 nM compound) | Compound | pIC50 [2] |
| --- | --- | --- | --- |
| A (A is <0.3) | A (A is <0.2) | O=C1CCC(c2ccc(N3CCN(CCC4CCN(NC(=O)c5ccc(Nc6ncc(F)c(Nc7ccc(C(=O)Nc8ccccc8F)cc7)n6)cc5)CC4)CC3)cc2)C(=O)N1 (stereo not drawn) [Compound 90, 4-[[2-[4-[[4-[2-[4-[4-(2,6-dioxo-3-piperidyl)phenyl]piperazin-1-yl]ethyl]-1-piperidyl]carbamoyl]anilino]-5-fluoro-pyrimidin-4-yl]amino]-N-(2-fluorophenyl)benzamide] | > 7.30 |
| A (A is <0.3) | A (A is <0.2) | Cn1c(=O)n(C2CCC(=O)NC2=O)c2ccc(N3CCN(CCC4CCN(NC(=O)c5ccc(Nc6ncc(F)c(Nc7ccc(C(=O)Nc8ccccc8Cl)cc7)n6)cc5)CC4)CC3)cc21 (stereo not drawn) [Compound 106, N-(2-chlorophenyl)-4-((2-((4-((4-(2-(4-(1-(2,6-dioxopiperidin-3-yl)-3-methyl-2-oxo-2,3-dihydro-1H-benzo[d]imidazol-5-yl)piperazin-1-yl)ethyl)piperidin-1-yl)carbamoyl)phenyl)amino)-5-fluoropyrimidin-4-yl)amino)benzamide] | 6.82 to 7.00 |
| B (B is 0.3 to 0.5) | A (A is <0.2) | O=C1CCC(c2ccc(N3CCC(CN4CC5(CCN(NC(=O)c6ccc(Nc7ncc(F)c(Nc8ccc(C(=O)Nc9ccccc9Cl)cc8)n7)cc6)CC5)C4)CC3)c(F)c2)C(=O)N1 (stereo not drawn) [Compound 97, N-(2-chlorophenyl)-4-((2-((4-((2-((1-(4-(2,6-dioxopiperidin-3-yl)-2-fluorophenyl)piperidin-4-yl)methyl)-2,7-diazaspiro[3.5]nonan-7-yl)carbamoyl)phenyl)amino)-5-fluoropyrimidin-4-yl)amino)benzamide] | 7.00 to 7.30 |
| C (C is 0.5 to 0.7) | B (B is 0.2 to 0.4) | O=C1CCC(c2ccc(N3CCN(CCC4CCN(C(=O)c5ccc(Nc6ncc(F)c(Nc7ccc(C(=O)Nc8ccccc8Cl)cc7)n6)cc5)CC4)CC3)cc2)C(=O)N1 (stereo not drawn) [Compound 110, N-(2-chlorophenyl)-4-[[2-[4-[4-[2-[4-[4-(2,6-dioxo-3-piperidyl)phenyl]piperazin-1-yl]ethyl]piperidine-1-carbonyl]anilino]-5-fluoro-pyrimidin-4-yl]amino]benzamide] | 6.70 to 6.82 |
| A (A is <0.3) | A (A is <0.2) | O=C1CC[C@@H](Nc2ccc(N3CCN(CCC4CCN(NC(=O)c5ccc(Nc6ncc(F)c(Nc7ccc(C(=O)Nc8ccccc8Cl)cc7)n6)cc5)CC4)CC3)c(F)c2)C(=O)N1 [Compound 108, (R)—N-(2-chlorophenyl)-4-((2-((4-((4-(2-(4-(4-((2,6-dioxopiperidin-3-yl)amino)-2-fluorophenyl)piperazin-1-yl)ethyl)piperidin-1-yl)carbamoyl)phenyl)amino)-5-fluoropyrimidin-4-yl)amino)benzamide] | > 7.30 |
| A (A is <0.3) | A (A is <0.2) | C[C@H]1CN(CCC2CCN(NC(=O)c3ccc(Nc4ncc(F)c(Nc5ccc(C(=O)Nc6ccccc6Cl)cc5)n4)cc3)CC2)CCN1c1ccc(C2CCC(=O)NC2=O)cc1 (stereo partly drawn) [Compound 114, N-(2-chlorophenyl)-4-((2-((4-((4-(2-((3S)-4-(4-(2,6-dioxopiperidin-3-yl)phenyl)-3-methylpiperazin-1-yl)ethyl)piperidin-1-yl)carbamoyl)phenyl)amino)-5-fluoropyrimidin-4-yl)amino)benzamide] | > 7.30 |
| A (A is <0.3) | A (A is <0.2) | C[C@@H]1CN(CCC2CCN(NC(=O)c3ccc(Nc4ncc(F)c(Nc5ccc(C(=O)Nc6ccccc6Cl)cc5)n4)cc3)CC2)CCN1c1ccc(C2CCC(=O)NC2=O)cc1 (stereo partly drawn) [Compound 116, N-(2-chlorophenyl)-4-((2-((4-((4-(2-((3R)-4-(4-(2,6-dioxopiperidin-3-yl)phenyl)-3-methylpiperazin-1-yl)ethyl)piperidin-1-yl)carbamoyl)phenyl)amino)-5-fluoropyrimidin-4-yl)amino)benzamide] | > 7.30 |

The remaining lines, values behind:

| Compound | luminescence value (Level) ([1]; 10 nM compound) | luminescence value (Level) ([1]; 100 nM compound) | pIC50 [2] |
| --- | --- | --- | --- |
| CN(CC1CCN(c2ccc(NC3CCC(=O)NC3=O)cc2)CC1)C[C@H]1CC[C@H](NC(=O)c2ccc(Nc3ncc(F)c(Nc4ccc(C(=O)Nc5ccccc5Cl)cc4)n3)cc2)CC1 (stereo partly drawn) [Compound 38, N-(2-chlorophenyl)-4-[[2-[4-[[4-[[[1-[4-[(2,6-dioxo-3-piperidyl)amino]phenyl]-4-piperidyl]methyl-methyl-amino]methyl]cyclohexyl]carbamoyl]anilino]-5-fluoro-pyrimidin-4-yl]amino]benzamide] | B (B is 0.3 to 0.5) | B (B is 0.2 to 0.4) | < 6.70 |
| O=C1CCC(Nc2ccc(N3CCC(CN4CCC5(CC4)CCN(C(=O)c4ccc(Nc6ncc(F)c(Nc7ccc(C(=O)Nc8ccccc8Cl)cc7)n6)cc4)C5)CC3)cc2)C(=O)N1 (stereo not drawn) [Compound 33, N-(2-chlorophenyl)-4-[[2-[4-[8-[[1-[4-[(2,6-dioxo-3-piperidyl)amino]phenyl]-4-piperidyl]methyl]-2,8-diazaspiro[4.5]decane-2-carbonyl]anilino]-5-fluoro-pyrimidin-4-yl]amino]benzamide] | B (B is 0.3 to 0.5) | A (A is <0.2) | 6.82 to 7.00 |
| O=C1CCC(c2ccc(N3CCN(CC[C@H]4CC[C@H](NC(=O)c5ccc(Nc6ncc(F)c(Nc7ccc(C(=O)Nc8ccccc8Cl)cc7)n6)cc5)CC4)CC3)c(F)c2)C(=O)N1 (stereo partly drawn) [Compound 74, N-(2-chlorophenyl)-4-((2-((4-(((1r,4r)-4-(2-(4-(4-(2,6-dioxopiperidin-3-yl)-2-fluorophenyl)piperazin-1-yl)ethyl)cyclohexyl)carbamoyl)phenyl)amino)-5-fluoropyrimidin-4-yl)amino)benzamide] | B (B is 0.3 to 0.5) | A (A is <0.2) | > 7.30 |
| O=C1CCC(c2ccc(N3CCN(CCC4CCN(NC(=O)c5ccc(Nc6ncc(F)c(Nc7ccc(C(=O)Nc8ccccc8Cl)cc7)n6)cc5)CC4)CC3)cc2)C(=O)N1 (stereo not drawn) [Compound 7, N-(2-chlorophenyl)-4-((2-((4-((4-(2-(4-(4-(2,6-dioxopiperidin-3-yl)phenyl)piperazin-1-yl)ethyl)piperidin-1-yl)carbamoyl)phenyl)amino)-5-fluoropyrimidin-4-yl)amino)benzamide] | A (A is <0.3) | A (A is <0.2) | > 7.30 |
| O=C1CCC(c2ccc(N3CCN(CC4CCN(C(=O)c5ccc(Nc6ncc(F)c(Nc7ccc(C(=O)Nc8ccccc8Cl)cc7)n6)cc5)CC4)CC3)cc2)C(=O)N1 (stereo not drawn) [Compound 3, N-(2-chlorophenyl)-4-((2-((4-(4-((4-(4-(2,6-dioxopiperidin-3-yl)phenyl)piperazin-1-yl)methyl)piperidine-1-carbonyl)phenyl)amino)-5-fluoropyrimidin-4-yl)amino)benzamide] | C (C is 0.5 to 0.7) | A (A is <0.2) | 7.00 to 7.30 |
| CN(CC1CCN(c2ccc(C3CCC(=O)NC3=O)cc2F)CC1)C1CCN(NC(=O)c2ccc(Nc3ncc(F)c(Nc4ccc(C(=O)Nc5ccccc5Cl)cc4)n3)cc2)CC1 (stereo not drawn) [Compound 81, N-(2-chlorophenyl)-4-((2-((4-((4-(((1-(4-(2,6-dioxopiperidin-3-yl)-2-fluorophenyl)piperidin-4-yl)methyl)(methyl)amino)piperidin-1-yl)carbamoyl)phenyl)amino)-5-fluoropyrimidin-4-yl)amino)benzamide] | A (A is <0.3) | A (A is <0.2) | > 7.30 |
| CN(CC1CCN(c2ccc(C3CCC(=O)NC3=O)cc2F)CC1)[C@H]1CC[C@H](NC(=O)c2ccc(Nc3ncc(F)c(Nc4ccc(C(=O)Nc5ccccc5Cl)cc4)n3)cc2)CC1 (stereo partly drawn) [Compound 80, N-(2-chlorophenyl)-4-((2-((4-(((1r,4r)-4-(((1-(4-(2,6-dioxopiperidin-3-yl)-2-fluorophenyl)piperidin-4-yl)methyl)(methyl)amino)cyclohexyl)carbamoyl)phenyl)amino)-5-fluoropyrimidin-4-yl)amino)benzamide] | A (A is <0.3) | A (A is <0.2) | 7.00 to 7.30 |
| O=C1CCC(c2ccc(N3CCN(CCN4CC(NC(=O)c5ccc(Nc6ncc(F)c(Nc7ccc(C(=O)Nc8ccccc8Cl)cc7)n6)cc5)C4)CC3)cc2)C(=O)N1 (stereo not drawn) [Compound 65, N-(2-chlorophenyl)-4-((2-((4-((1-(2-(4-(4-(2,6-dioxopiperidin-3-yl)phenyl)piperazin-1-yl)ethyl)azetidin-3-yl)carbamoyl)phenyl)amino)-5-fluoropyrimidin-4-yl)amino) benzamide] | B (B is 0.3 to 0.5) | A (A is <0.2) | 7.00 to 7.30 |
